# Legend:
# [1] = biological target: T1, human B1R receptor (hB1R) (Homo sapiens, UniProt P46663); assay: FLIPR Ca2+ assay on hB1R-transfected CHO K1 cells, antagonistic action; type: cell-based; conditions: CHO-K1, 10 μM test substance; agonist Lys-Des-Arg9-bradykinin 0.5 nM; % of maximum achievable inhibition; read-out: hB1R [10 μM] % inhibition
# T1 construct: host or cells: CHO K1 cells
# T1 sequence (P46663 1-353): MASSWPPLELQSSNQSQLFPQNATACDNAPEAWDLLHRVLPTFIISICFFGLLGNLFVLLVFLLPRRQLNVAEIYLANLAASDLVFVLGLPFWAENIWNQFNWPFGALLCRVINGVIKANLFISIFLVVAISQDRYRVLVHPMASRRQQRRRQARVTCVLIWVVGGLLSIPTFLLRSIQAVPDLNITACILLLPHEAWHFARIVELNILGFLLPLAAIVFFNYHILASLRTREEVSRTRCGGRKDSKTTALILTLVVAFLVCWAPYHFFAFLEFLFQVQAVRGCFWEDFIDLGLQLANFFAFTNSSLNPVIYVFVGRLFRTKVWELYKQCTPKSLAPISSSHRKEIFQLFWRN
# [2] = biological target: T2, B1R receptor of the rat (rB1R) (Rattus norvegicus, UniProt P97583); assay: FLIPR Ca2+ assay on rB1R-transfected CHO K1 cells, antagonistic action; type: cell-based; conditions: CHO-K1, 10 μM test substance; agonist Des-Arg9-bradykinin 100 nM; % of maximum achievable inhibition; read-out: rB1R [10 μM] % inhibition
# T2 construct: host or cells: CHO K1 cells
# T2 sequence (P97583 1-337): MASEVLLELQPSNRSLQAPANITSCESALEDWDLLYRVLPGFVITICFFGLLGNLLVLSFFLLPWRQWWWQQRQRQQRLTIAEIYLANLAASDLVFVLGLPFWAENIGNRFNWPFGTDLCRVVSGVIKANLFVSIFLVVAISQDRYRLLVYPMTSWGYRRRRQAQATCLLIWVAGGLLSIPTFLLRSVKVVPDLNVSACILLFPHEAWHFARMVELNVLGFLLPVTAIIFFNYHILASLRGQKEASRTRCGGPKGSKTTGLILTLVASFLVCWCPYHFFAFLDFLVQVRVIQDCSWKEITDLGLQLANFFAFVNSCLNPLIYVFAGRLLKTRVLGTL
SMILES,inhibition at 10 µM [1],inhibition at 10 µM [2]
"O=C(COC1CCN(S(=O)(=O)c2c(Cl)cc(Cl)cc2Cl)C1)NC1CCC(c2ccccc2)(N2CCCC2)CC1 (stereo not shown) [Compound 178, N-(4-phenyl-4-(pyrrolidin-1-yl)cyclohexyl)-2-(1-(2,4,6-trichlorophenylsulfonyl)pyrrolidin-3-yloxy)acetamide]",53%,76%
"CN(CCOCC(=O)NC1CCC(c2ccccc2)(N2CCCC2)CC1)S(=O)(=O)c1ccc(Cl)cc1Cl (stereo not shown) [Compound 179, 2-(2-(2,4-dichloro-N-methylphenylsulfonamido)ethoxy)-N-(4-phenyl-4-(pyrrolidin-1-yl)cyclohexyl)acetamide]",41%,75%
"COc1cc(C)c(S(=O)(=O)N2CCCC(COCC(=O)NC3CCC(Cc4ccccc4)(N4CCCC4)CC3)C2)c(C)c1 (stereo not shown) [Compound 180, N-(4-benzyl-4-(pyrrolidin-1-yl)cyclohexyl)-2-((1-(4-methoxy-2,6-dimethylphenylsulfonyl)piperidin-3-yl)methoxy)acetamide]",71%,73%
"COc1cc(C)c(S(=O)(=O)N2CCCC(OCC(=O)NC3CCC(Cc4ccccc4)(N4CCCC4)CC3)C2)c(C)c1 (stereo not shown) [Compound 181, N-(4-benzyl-4-(pyrrolidin-1-yl)cyclohexyl)-2-(1-(4-methoxy-2,6-dimethylphenylsulfonyl)piperidin-3-yloxy)acetamide]",78%,71%
"COc1cc(C)c(S(=O)(=O)N2CCCC(COCC(=O)N(C)CC3CCC(CCc4ccccc4)(N4CCN(C)CC4)CC3)C2)c(C)c1 (stereo not shown) [Compound 182, 2-((1-(4-methoxy-2,6-dimethylphenylsulfonyl)piperidin-3-yl)methoxy)-N-methyl-N-((4-(4-methylpiperazin-1-yl)-4-phenethylcyclohexyl)methyl)acetamide]",106%,67%
"COc1cc(C)c(S(=O)(=O)N(C)CCOCC(=O)N(C)CC2CCC(Cc3ccccc3)(N3CCN(C)CC3)CC2)c(C)c1 (stereo not shown) [Compound 183, N-((4-benzyl-4-(4-methylpiperazin-1-yl)cyclohexyl)methyl)-2-(2-(4-methoxy-N,2,6-trimethylphenylsulfonamido)ethoxy)-N-methylacetamide]",102%,66%
"COc1cc(C)c(S(=O)(=O)N2CCCC(OCC(=O)N(C)CC3CCC(Cc4ccccc4)(N4CCN(C)CC4)CC3)C2)c(C)c1 (stereo not shown) [Compound 184, N-((4-benzyl-4-(4-methylpiperazin-1-yl)cyclohexyl)methyl)-2-(1-(4-methoxy-2,6-dimethylphenylsulfonyl)piperidin-3-yloxy)-N-methylacetamide]",93%,65%
"COc1cc(C)c(S(=O)(=O)N(C)CCOCC(=O)NCC2CCC(c3ccccc3)(N3CCOCC3)CC2)c(C)c1 (stereo not shown) [Compound 185, 2-(2-(4-methoxy-N,2,6-trimethylphenylsulfonamido)ethoxy)-N-((4-morpholino-4-phenylcyclohexyl)methyl)acetamide]",93%,65%
"CN1CCN(C2(Cc3ccccc3)CCC(CN(C)C(=O)COCCN(C)S(=O)(=O)c3c(Cl)cc(Cl)cc3Cl)CC2)CC1 (stereo not shown) [Compound 186, N-((4-benzyl-4-(4-methylpiperazin-1-yl)cyclohexyl)methyl)-N-methyl-2-(2-(2,4,6-trichloro-N-methylphenylsulfonamido)ethoxy)acetamide]",97%,64%
"COc1cc(C)c(S(=O)(=O)N2CCCC(COCC(=O)NC3CCC(c4ccccc4)(N4CCCC4)CC3)C2)c(C)c1 (stereo not shown) [Compound 187, 2-((1-(4-methoxy-2,6-dimethylphenylsulfonyl)piperidin-3-yl)methoxy)-N-(4-phenyl-4-(pyrrolidin-1-yl)cyclohexyl)acetamide]",95%,63%
"COc1cc(C)c(S(=O)(=O)N(C)CCOCC(=O)NCC2CCC(Cc3ccccc3)(N3CCOCC3)CC2)c(C)c1 (stereo not shown) [Compound 188, N-((4-benzyl-4-morpholinocyclohexyl)methyl)-2-(2-(4-methoxy-N,2,6-trimethylphenylsulfonamido)ethoxy)acetamide]",95%,63%
"CN(CCOCC(=O)NC1CCC(Cc2ccccc2)(N2CCCC2)CC1)S(=O)(=O)c1c(Cl)cc(Cl)cc1Cl (stereo not shown) [Compound 189, N-(4-benzyl-4-(pyrrolidin-1-yl)cyclohexyl)-2-(2-(2,4,6-trichloro-N-methylphenylsulfonamido)ethoxy)acetamide]",65%,60%
"COc1cc(C)c(S(=O)(=O)N2CCCC(OCC(=O)NC3CCC(Cc4ccccc4)(N4CCOCC4)CC3)C2)c(C)c1 (stereo not shown) [Compound 190, N-(4-benzyl-4-morpholinocyclohexyl)-2-(1-(4-methoxy-2,6-dimethylphenylsulfonyl)piperidin-3-yloxy)acetamide]",90%,57%
"CN(CCOCC(=O)NC1CCC(c2ccccc2)(N2CCCC2)CC1)S(=O)(=O)c1c(Cl)cc(Cl)cc1Cl (stereo not shown) [Compound 191, N-(4-phenyl-4-(pyrrolidin-1-yl)cyclohexyl)-2-(2-(2,4,6-trichloro-N-methylphenylsulfonamido)ethoxy)acetamide]",90%,55%
"O=C(COCC1CCCN(S(=O)(=O)c2c(Cl)cc(Cl)cc2Cl)C1)NC1CCC(c2ccccc2)(N2CCCC2)CC1 (stereo not shown) [Compound 192, N-(4-phenyl-4-(pyrrolidin-1-yl)cyclohexyl)-2-((1-(2,4,6-trichlorophenylsulfonyl)piperidin-3-yl)methoxy)acetamide]",99%,50%
"CN(CCOCC(=O)NC1CCC(Cc2ccccc2)(N2CCCC2)CC1)S(=O)(=O)c1ccc(Cl)cc1Cl (stereo not shown) [Compound 193, N-(4-benzyl-4-(pyrrolidin-1-yl)cyclohexyl)-2-(2-(2,4-dichloro-N-methylphenylsulfonamido)ethoxy)acetamide]",93%,34%
"O=C(COC1CCCN(S(=O)(=O)c2c(Cl)cc(Cl)cc2Cl)C1)NC1CCC(c2ccccc2)(N2CCCC2)CC1 (stereo not shown) [Compound 194, N-(4-phenyl-4-(pyrrolidin-1-yl)cyclohexyl)-2-(1-(2,4,6-trichlorophenylsulfonyl)piperidin-3-yloxy)acetamide]",96%,33%
"CN1CCN(C2(CCc3ccccc3)CCC(CN(C)C(=O)COCCN(C)S(=O)(=O)c3c(Cl)cc(Cl)cc3Cl)CC2)CC1 (stereo not shown) [Compound 195, N-methyl-N-((4-(4-methylpiperazin-1-yl)-4-phenethylcyclohexyl)methyl)-2-(2-(2,4,6-trichloro-N-methylphenylsulfonamido)ethoxy)acetamide]",100%,28%
"COc1cc(C)c(S(=O)(=O)N(C)CCOCC(=O)N2CCC(N)(c3ccccc3)CC2)c(C)c1 [Compound 196, N-(2-(2-(4-Amino-4-phenylpiperidin-1-yl)-2-oxoethoxy)ethyl)-4-methoxy-N,2,6-trimethylbenzenesulfonamide]",103%,100%
"COc1cc(C)c(S(=O)(=O)N(C)CCOCC(=O)N2CCC(Cc3ccccc3)(N3CCN(C)CC3)C2)c(C)c1 (stereo not shown) [Compound 197, N-(2-(2-(3-benzyl-3-(4-methylpiperazin-1-yl)pyrrolidin-1-yl)-2-oxoethoxy)ethyl)-4-methoxy-N,2,6-trimethylbenzenesulfonamide]",98%,99%
"CN(C)C1(c2ccccc2)CCC(NC(=O)COC2CCN(S(=O)(=O)c3c(Cl)cc(Cl)cc3Cl)C2)CC1 (stereo not shown) [Compound 198, N-(4-(dimethylamino)-4-phenylcyclohexyl)-2-(1-(2,4,6-trichlorophenylsulfonyl)pyrrolidin-3-yloxy)acetamide]",63%,47%
"CN(C)C1(c2ccccc2)CCC(NC(=O)COCCN(C)S(=O)(=O)c2c(Cl)cc(Cl)cc2Cl)CC1 (stereo not shown) [Compound 199, N-(4-(dimethylamino)-4-phenylcyclohexyl)-2-(2-(2,4,6-trichloro-N-methylphenylsulfonamido)ethoxy)acetamide]",76%,36%
"COc1cc(C)c(S(=O)(=O)N2CCCC[C@H]2COCC(=O)N(C)CCC2CCC(c3ccccc3)(N3CCCC3)CC2)c(C)c1 (stereo partly drawn) [Compound 200, (S)-2-((1-(4-methoxy-2,6-dimethylphenylsulfonyl)piperidin-2-yl)methoxy)-N-methyl-N-(2-(4-phenyl-4-(pyrrolidin-1-yl)cyclohexyl)ethyl)acetamide]",99%,105%

# — patent publication US20090253669A1, “Substituted Sulfonamide Compounds” (GRUENENTHAL GmbH, priority 2008, published 2009)
